Measurements from paper PMC9304199, “A small molecule CFTR potentiator restores ATP‐dependent channel gating to the cystic fibrosis mutant G551D‐CFTR” (British Journal of Pharmacology, 2022).

Assays:
F508del‐CFTR [1] = target: T1, F508del‐CFTR (Homo sapiens, UniProt P13569, DEL508-508); assay: Ussing chamber apical Cl− current (ICl apical) in FRT epithelia expressing F508del‐CFTR; assay type: cell-based; design: assays at Charles River Laboratories (ChanTest); details: for EC50: F508del‐CFTR FRT epithelia, lumacaftor (5 μM) rescued, ICl apical, 27°C, read-out: EC50 (μM) (95% CI)
T1 sequence (P13569 with tags, fused parts or gaps DEL508-508): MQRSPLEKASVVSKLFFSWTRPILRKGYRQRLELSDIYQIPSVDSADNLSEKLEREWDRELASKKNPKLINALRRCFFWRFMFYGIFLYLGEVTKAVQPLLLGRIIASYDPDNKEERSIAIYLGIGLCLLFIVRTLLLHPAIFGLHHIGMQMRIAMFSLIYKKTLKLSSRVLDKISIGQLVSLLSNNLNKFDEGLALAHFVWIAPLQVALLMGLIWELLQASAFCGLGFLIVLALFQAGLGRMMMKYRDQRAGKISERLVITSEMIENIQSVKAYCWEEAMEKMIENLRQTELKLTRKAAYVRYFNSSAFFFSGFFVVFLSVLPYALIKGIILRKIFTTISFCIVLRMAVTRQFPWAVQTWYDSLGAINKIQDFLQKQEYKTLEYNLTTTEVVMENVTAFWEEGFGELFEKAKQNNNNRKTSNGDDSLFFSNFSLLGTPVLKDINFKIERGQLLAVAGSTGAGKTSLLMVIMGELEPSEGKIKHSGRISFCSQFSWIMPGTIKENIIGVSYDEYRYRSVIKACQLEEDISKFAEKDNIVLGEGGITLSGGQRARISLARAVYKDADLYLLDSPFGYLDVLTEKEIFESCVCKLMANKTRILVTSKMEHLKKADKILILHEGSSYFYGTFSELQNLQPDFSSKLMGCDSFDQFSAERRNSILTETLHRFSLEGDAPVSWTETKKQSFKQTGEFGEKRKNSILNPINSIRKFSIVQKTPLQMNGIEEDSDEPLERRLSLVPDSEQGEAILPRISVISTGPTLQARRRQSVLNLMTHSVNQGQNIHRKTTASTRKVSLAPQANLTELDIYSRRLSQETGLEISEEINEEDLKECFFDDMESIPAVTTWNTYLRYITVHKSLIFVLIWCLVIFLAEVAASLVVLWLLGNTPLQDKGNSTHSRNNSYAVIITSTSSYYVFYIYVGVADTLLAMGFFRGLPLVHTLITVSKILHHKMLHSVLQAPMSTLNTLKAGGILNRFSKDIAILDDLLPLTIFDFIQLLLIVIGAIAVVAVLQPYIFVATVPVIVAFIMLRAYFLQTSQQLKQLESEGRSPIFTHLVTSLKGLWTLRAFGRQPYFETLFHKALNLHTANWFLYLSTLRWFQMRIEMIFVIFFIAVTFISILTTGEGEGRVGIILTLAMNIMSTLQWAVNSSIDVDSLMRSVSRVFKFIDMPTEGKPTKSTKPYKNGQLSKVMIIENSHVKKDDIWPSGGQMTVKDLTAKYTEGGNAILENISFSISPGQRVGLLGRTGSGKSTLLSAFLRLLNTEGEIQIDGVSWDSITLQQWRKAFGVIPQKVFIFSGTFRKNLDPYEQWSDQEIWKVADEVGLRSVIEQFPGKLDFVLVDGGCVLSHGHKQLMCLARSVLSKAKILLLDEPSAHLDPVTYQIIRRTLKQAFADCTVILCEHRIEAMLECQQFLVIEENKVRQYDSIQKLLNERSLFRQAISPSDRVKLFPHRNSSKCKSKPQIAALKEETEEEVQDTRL
Description: Ussing chamber studies to determine the concentration–response relationships of CFTR potentiators (Figure 1c–f) were performed at Charles River Laboratories (ChanTest) (Cleveland, OH, USA). For these studies, FRT cells were stably transfected with CFTR cDNAs with the F508del and G551D variants and the common polymorphism M470 (synthesised by System Biosciences, Palo Alto, CA, USA) using the Flp‐In™ system (Thermo Fisher Scientific, Waltham, MA, USA). The F508del‐CFTR cDNA contained the following differences from the canonical CFTR cDNA sequence (NCBI Accession Number NM_000492): del CTT (1521–1523) to delete F508; synonymous changes T > C (798), A > G (801), T > C (804) to remove a cryptic bacterial promoter; synonymous change T > C (1095); G > A (1408) to give M470 and was amplified using the primers 5′ […] 3′ and 5′ […] 3′. The G551D‐CFTR cDNA contained the following differences from the canonical CFTR cDNA sequence (NCBI Accession Number NM_000492): G > A (1652) to replace G551 with D551; synonymous changes T > C (798), A > G (801), T > C (804) to remove a cryptic bacterial promoter; synonymous change A > C (516); synonymous change T > C (1095); G > A (1408) to give M470 and was amplified using the primers 5′ […] 3′ and 5′ […] 3′. Using Kpn1 and Not1 restriction sites, the F508del‐ and G551D‐CFTR cDNAs were inserted into pcDNA5/FRT (Flp‐In™) (RRID:Addgene_31984). […]
To test the effects of CP‐628006 on CFTR Cl^− channels in the apical membrane of FRT epithelia, we permeabilized the basolateral membrane with amphotericin B (100 μM). After cancelling voltage offsets, we clamped transepithelial voltage at 0 mV and measured apical Cl^− current (ICl ^apical) continuously using a Physiologic Instruments VCC MC6/8 multichannel voltage/current clamp (Li et al., [2004]).

F508del‐CFTR [2] = target: T1, F508del‐CFTR; assay: Thermal stability (deactivation) of F508del‐CFTR in excised inside-out membrane patches at 37°C; assay type: biochemical; design: expressed in transfected cells; BHK cells from MD Amaral
Description: To investigate the effects of CFTR potentiators on the plasma membrane stability of F508del‐CFTR, we monitored its thermal stability in excised inside‐out membrane patches at 37°C (Wang et al., [2014]). Membrane patches were excised and F508del‐CFTR Cl^− channels activated at 27°C. Once channels were fully activated and potentiated, the temperature of the intracellular solution was increased to 37°C, which took 2–3 min. To quantify data, we calculated open probability (Po) and normalised Po values in 30‐s intervals over a 9‐min period (Wang et al., [2014]).

SMILES | EC50 (F508del‐CFTR [1]) | Emax (F508del‐CFTR [1]; read-out: Maximal effect (%) (95% CI)) | acceleration of F508del‐CFTR deactivation (time to reach normalised Po of 50%) (F508del‐CFTR [2]; compound 1 μM, ATP 1 mM, PKA 75 nM, versus low temperature-rescued control) | increase of time to normalised Po of 50% relative to low temperature-rescued (F508del‐CFTR [2]; compound 10 μM) | delay of F508del‐CFTR deactivation (time to reach normalised Po of 50%) (F508del‐CFTR [2]; compound 10 μM, ATP 1 mM, PKA 75 nM, versus low temperature-rescued control)
CC(C)(C)c1cc(C(C)(C)C)c(NC(=O)c2c[nH]c3ccccc3c2=O)cc1O [ivacaftor, reference compound] | 0.002 µM | 103% | ~ 30 s |  | 
Cc1ncccc1CNC(=O)c1ccc2c(c1)CC[C@H]1C[C@](O)(CCC(F)(F)F)CC[C@]21Cc1ccccc1 (racemic) [CP‐628006, rac‐(4bR,7R,8aS)‐4b‐benzyl‐7‐hydroxy‐N‐((2‐methylpyridin‐3‐yl)methyl)‐7‐(3,3,3‐trifluoropropyl)‐4b,5,6,7,8,8a,9,10‐octahydrophenanthrene‐2‐carboxamide] | > 0.5 µM |  |  | approximately 67% | ~ 90 s
